Reference: patent publication US5726319A, “Biphenyl substituted dipeptide analogs promote release of growth hormone” (Merck & Co., Inc., priority 1995, dated 1998)
Structures can show the parent of a compound that is named as a salt.

Test system: rat pituitary cells
Experiment: growth hormone secretion in rat pituitary cell cultures (GH release, RIA)
Type: cell-based
Settings: 0.25 h; GH release from cultured rat anterior pituitary cells, 15 min incubation at 37° C., rat GH measured by double antibody RIA; read-out: ED50 (the source's name)
Experimental: The bioassay employed for the determination of growth hormone secretion in rat pituitary cell cultures has been previously described--Cheng, K.; Chan, W. W.-S; Barreto, A.; Convey, E. M.; Smith, R. G. Endocrinology 124: 2791-2798 (1989)--and is summarized here: The Wistar male rats (150-200 grams) were obtained from Charles River Laboratories (Wilmington, Mass). Rats were maintained at a constant temperature (25° C.) on a 14-hr light, 10-hr dark cycle. Rat chow and water were available ad libitum. The animals were sacrificed by decapitation and anterior lobes of the pituitary quickly removed. Rat pituitary cells were isolated from pituitaries by enzymatic digestion with 0.2% collagenase and 0.2% hyaluronidase in Hank's Balanced Salt Solution. For culture, the cells were suspended in culture medium and adjusted to 1.5×10^5 cells/ml, and 1.0 ml of this suspension was placed in each well of a 24-well tray (Costar, Cambridge, Mass.). Cells were maintained in a humidified 5% CO2 -95% air atmosphere at 37° C. for 3 to 4 days. The culture medium consisted of DMEM containing 0.37% NaHCO3, 10% horse serum, 2.5% fetal bovine serum, 1% non-essential amino acids, 1% glutamine, 1% nystatin, and 0.1% gentamycin. On the day of an experiment, cells were washed twice 11/2 hrs prior to and once more immediately before the start of the experiment with the above culture medium containing 25 mM HEPES, pH 7.4. GH release was initiated by adding 1 ml of fresh medium containing test agents to each well in quadruplicate. Incubation was carded out at 37° C. for 15 min. After incubation, medium was removed and centrifuged at 2,000×g for 15 min to remove any cellular material. The supernatant fluid was removed and assayed for GH content. Rat GH in culture medium was measured by a double antibody RIA procedure using materials obtained from Dr. A. F. Parlow (Harbor-UCLA medical Center, Torrance, Calif.) and expressed in terms of the standard rat GH RP-2. ED50 values for test compounds were computed by fitting a four-parameter logistic function to the dose-response curve. Least squares estimates of the four-parameter logistic function coefficients and their variances were derived using the iterative algorithm described by Bates and Watts.

Structure (SMILES) | EC50
CC(C)(N)CC(=O)N[C@H](Cc1c[nH]c2ccccc12)C(=O)NCc1ccc(-c2ccccc2-c2nnn[nH]2)cc1 [Example 3, (R)-α-[(3-Amino-3-methyl-1-oxobutyl)amino]-N-[[2'-(1H-tetrazol-5-yl)[1,1'-biphenyl]-4-yl]methyl]-1H-indole-3-propanamide, trifluoroacetate] | < 500 nM
CC(C)(N)CC(=O)N[C@H](Cc1c[nH]c2ccccc12)C(=O)NCc1ccc(-c2ccccc2NC(=O)NCCO)cc1 [Example 17, (R)-α-[(3-Amino-3-methyl-1-oxobutyl)amino]-N-[[2'-[[(2-hydroxyethylamino)carbonyl]amino][1,1'-biphenyl]-4-yl]-methyl]-1H-indole-3-propanamide, trifluoroacetate] | > 500 nM
CC(C)(N)CC(=O)NCC(=O)NCc1ccc(-c2ccccc2-c2nnn[nH]2)cc1 [Example 5, 2-[(3-Amino-3-methyl-1-oxobutyl)amino]-N-[[2'-(1H-tetrazol-5-yl)[1,1'-biphenyl]-4-yl]methyl]acetamide, trifluoroacetate] | > 500 nM

Same assay, conditions: GH release from cultured rat anterior pituitary cells, 15 min incubation at 37° C., rat GH measured by double antibody RIA; read-out: ED50 (the source's name)

Structure (SMILES) | EC50
CC(C)(N)CC(=O)N[C@H](COCc1ccccc1)C(=O)NCc1ccc(-c2ccccc2-c2nnn[nH]2)cc1.O=C(O)C(F)(F)F [Example 28, (R)-α-[(3-Amino-3-methyl-1-oxybutyl)amino]-N-[[2'-(1H-tetrazol-5-yl)-[1,1'-biphenyl]-4-yl]methyl]-3-[(phenylmethyl)oxy]propanamide, trifluoracetate] | > 500 nM
CCN(Cc1ccc(-c2ccccc2CNC(=O)NC)cc1)C(=O)[C@@H](CCc1ccccc1)NC(=O)C(C)(C)N.O=C(O)C(F)(F)F [Example 20, (R)-α-[(2-Amino-2-methyl-1-oxypropyl)amino]-N-ethyl-N-[[(2'-[((methylamino)carbonyl)aminomethyl])-[1,1'-biphenyl]-4-yl]methyl]benzenebutanamide,trifluoroacetate] | < 500 nM
COc1ccc(N(Cc2ccc(-c3ccccc3-c3nnn[nH]3)cc2)C(=O)[C@@H](CCc2ccccc2)NC(=O)C(C)(C)N)cc1.O=C(O)C(F)(F)F [Example 29, (R)-α-[(2-Amino-2-methyl-1-oxypropyl)amino]-N-(4-methoxyphenyl)-N-[[2'-(1H-tetrazol-5-yl)-[1,1'-biphenyl]-4-yl]methyl]benzenebutanamide, trifluoroacetate] | > 500 nM
CC(C)(N)C(=O)N[C@H](CCc1ccccc1)C(=O)N(Cc1ccc(-c2ccccc2-c2nnn[nH]2)cc1)c1ccc(O)cc1.O=C(O)C(F)(F)F [Example 31, (R)-α-[(2-Amino-2-methyl-1-oxypropyl)amino]-N-(4-hydroxyphenyl)-N-[[2'-(1H-tetrazol-5-yl)-[1,1'-biphenyl]-4-yl]methyl]benzene-butanamide, trifluoroacetate] | > 500 nM
CCN(Cc1ccc(-c2ccccc2-c2nnn[nH]2)cc1)C(=O)[C@@H](CCc1ccccc1)NC(=O)C(C)(C)N.O=C(O)C(F)(F)F [Example 18, (R)-α-[(2-Amino-2-methyl-1-oxypropyl)amino]-N-ethyl-N-[[2'-(1H-tetrazol-5-yl)-[1,1'-biphenyl]-4-yl]methyl]benzenebutanamide, trifluoroacetate] | > 500 nM
CN(Cc1ccc(-c2ccccc2-c2nnn[nH]2)cc1)C(=O)[C@@H](CCc1ccccc1)NC(=O)C(C)(C)N.O=C(O)C(F)(F)F [Example 7a, (R)-α-[(2-Amino-2-methyl-1-oxypropyl)amino]-N-methyl-N-[[2'-(1H-tetrazol-5-yl)-[1,1'-biphenyl]-4-yl]methyl]benzenebutanamide trifluoroacetate] | < 500 nM
CC(C)(N)CC(=O)N[C@H](COCc1ccccc1)C(=O)NCc1ccc(-c2ccccc2NC(=O)NCCO)cc1.O=C(O)C(F)(F)F [Example 26, (R)-α-[(3-Amino-3-methyl-1-oxobutyl)amino]-N-[[(2'-[(2-hydroxyethylamino)carbonyl]amino][1,1'-biphenyl]-4-yl]-methyl]-3-[(phenylmethyl)oxy]propanamide, trifluoracetate] | > 500 nM
CCN(Cc1ccc(-c2ccccc2-c2nnn[nH]2)cc1)C(=O)[C@@H](CCc1ccccc1)NC(=O)CC(C)(C)N.O=C(O)C(F)(F)F [Example 19, (R)-α-[(3-Amino-3-methyl-1-oxybutyl)amino]-N-ethyl-N-[[2'-(1H-tetrazol-5-yl)-[1,1'-biphenyl]-4-yl]methyl]benzenebutanamide, trifluoroacetate] | > 500 nM
CNC(=O)NCc1ccccc1-c1ccc(CN(C)C(=O)[C@@H](CCc2ccccc2)NC(=O)CC(C)(C)N)cc1.O=C(O)C(F)(F)F [Example 10] | < 500 nM
